Experimental data as given in publication PMC6130680, “In vitro and in vivo antidiabetic potential of extracts and a furostanol saponin from Balanites aegyptiaca” (Pharmaceutical Biology, 2017).
Marks after values point to notes of the source that are not given here.

Legend:
[1] = target: T1, Human recombinant aldose reductase (Homo sapiens, UniProt P15121); test: aldose reductase (AR) inhibition assay; format: biochemical; conditions: mean ± standard error
T1 construct: purchased Wako Pure Chemical Industries, Ltd. (Osaka, Japan)
Description: (§1) The positive control, acarbose, was purchased from Bayer Pharmaceuticals Pty, Ltd. (Wayne, NJ). Human recombinant aldose reductase and DL-glyceraldehyde were purchased from Wako Pure Chemical Industries, Ltd. (Osaka, Japan). Gliclazide was obtained from Servier Canada (Laval, QC, Canada). Pre-coated silica plates 60 GF254 (20 × 20 cm) (Fluka, Steinheim, Germany) were used for thin-layer chromatography (TLC). Silica gel H (Merck, Darmstadt, Germany) and Lichroprep RP-18 silica gel (15–25 μm, Merck, Darmstadt, Germany) were used for vacuum liquid chromatography (VLC). Silica gel 60 (70–230 mesh ASTM, Fluka, Steinheim, Germany), Diaion HP 20 (Sigma-Aldrich, St. Louis, MO), and Sephadex LH-20 (Sigma-Aldrich, Steinheim, Sweden) were used for column chromatography (CC). Spots were visualized by spraying with p-anisaldehyde/sulphuric acid.
(§2) AG and AR inhibitory activities of MeEx, ClFr, BuFr, AqFr, as well as the Diaion fractions D1–D6 were tested. AG inhibition was measured spectrophotometrically in a 96-well microplate reader using a procedure reported by Li et al. ([2009]). Acarbose was used as a positive control. The AR (EC 1.1.1.21) inhibitory activity was measured according to the procedure previously reported (Nishimura et al. [1991]). The experiments were repeated three times, and the IC50 values were calculated and expressed as mean ± standard error.

[2] = test system: STZ-induced diabetic rats; test: in vivo antidiabetic activity in STZ-induced diabetic rats; set-up: species or system male albino rats (Wistar strain); conditions: for Glucose level: fasting serum; for Glucose level / C-peptide / Cholesterol level / Insulin / Triglycerides: mean ± SEM, n = 6; for C-peptide / Cholesterol level / Insulin / Triglycerides: serum
Protocol: (§3) Male albino rats (Wistar strain, 150–200 g) and male mature albino mice of 20–25 g were obtained from the animal house colony of the National Research Center, Egypt. The experimental protocol followed the Institutional Animal Ethical Committee of the National Research Centre. The acute toxicity studies were performed on the mice. […] The animals survived and then four additional animals were tested sequentially so that a total of five animals were tested.
DM was induced by a single i.p. injection of STZ (55 mg/kg) in rats (Brosky and Logothetopoulos [1969]). Only rats with serum glucose levels of more than 250 mg/dL were selected and considered diabetic animals. MeEx, its active fraction (BuFr) and the active compound 3 were tested in the STZ-induced diabetic rats at two dose levels (100 and 200 mg/kg.b/wt) for 2 weeks. At the end of the 2-weeks treatment period, the animals were kept for an overnight fasting and the blood samples were collected from the retroorbital plexus and allowed to clot for 30 min at room temperature. These blood samples were centrifuged at 5000 rpm for 20 min and the serum was separated and stored at −80 °C until analysis was done. Serum samples were analyzed spectrophotometrically for serum glucose, triglycerides and cholesterol. Serum glucose was estimated by glucose oxidase–peroxidase method test agent kit (Stanbio, Boerne, TX) (Cheyne and Gilmore [1973]). Triglycerides were estimated by enzymatic methods by using a diagnostic kit (Biodiagnostic, Cairo, Egypt) (Fossati and Prencipe [1982]). Total cholesterol was estimated by enzymatic methods by using a diagnostic kit (Biodiagnostic, Cairo, Egypt) (Allain et al. [1974]). Serum insulin was estimated by a […] using the ALPCO Insulin (Rat) ELISA kit (Judzewitsch et al. [1982]). Serum C-peptide was measured with a rat insulin enzyme-linked immune absorbent assay kit (C-Peptide EIA Kit, Sigma-Aldrich, St. Louis, MO). Results were expressed as mean ± SEM for biochemical estimations. The quantitative data were analyzed by ANOVA followed by Tukey multiple comparison tests. The Kruskal–Wallis test was used for the quantitative analysis of the histopathology score values. Results were considered to be significant at p < 0.05.

[3] = target: α-Glucosidase enzyme from Brewer's yeast (EC 3.2.1.20); test: α-glucosidase (AG) inhibition assay; format: biochemical; conditions: mean ± standard error; substrate p-NPG; a dash for a tested fraction or compound means no AG activity
Description: as §1, §2

male mature albino mice = test: acute toxicity study in mice; format: in vivo; conditions: ascending oral doses up to 2000 mg/kg, observed closely for 24 h and daily for 14 days
Protocol: as §3
The acute toxicities of the three samples (MeEx, BuFr and compound 3) were studied where the mice took ascending oral doses up to 2000 mg/kg of each sample. They were observed closely for 24 h and daily for 14 days, where no mortality was observed.

[4] = 200 mg/kg for 2 weeks, versus diabetic control

COC1(CC[C@@H](C)CO[C@@H]2O[C@H](CO)[C@@H](O)[C@H](O)[C@H]2O)OC2C[C@H]3[C@@H]4CC=C5C[C@@H](O[C@@H]6O[C@H](CO)[C@@H](O[C@@H]7O[C@H](CO)[C@@H](O)[C@H](O)[C@H]7O)[C@H](O)[C@H]6O[C@@H]6O[C@@H](C)[C@H](O)[C@@H](O)[C@H]6O)CC[C@]5(C)[C@H]4CC[C@]3(C)C2[C@@H]1C (stereo partly drawn) [Compound 3, 26-(O-β-D-glucopyranosyl)-22-O-methylfurost-5-ene-3β,26-diol-3-O-β-D-glucopyranosyl-(1 → 4)-[α-L-rhamnopyranosyl-(1 → 2)]-β-D-glucopyranoside]
IC50 [1]: 0.964 µM | Glucose level ([2]; 100 mg/kg for 2 weeks): 207.4 ± 18.33^a mg/dL | C-peptide ([2]; 100 mg/kg for 2 weeks): 1.42 ± 0.07^a ng/mL | Cholesterol level ([2]; 100 mg/kg for 2 weeks): 139.2 ± 10.30 mg/dL | Insulin ([2]; 100 mg/kg for 2 weeks): 1.99 ± 0.04^a μIU/mL | Triglycerides ([2]; 100 mg/kg for 2 weeks): 112.2 ± 9.89 mg/dL | Glucose level ([2]; 200 mg/kg for 2 weeks): 122.2 ± 18.22^b mg/dL | C-peptide ([2]; 200 mg/kg for 2 weeks): 2.04 ± 0.06^b ng/mL | Cholesterol level ([2]; 200 mg/kg for 2 weeks): 115.6 ± 7.12^b mg/dL | Insulin ([2]; 200 mg/kg for 2 weeks): 3.17 ± 0.28^b μIU/mL | Triglycerides ([2]; 200 mg/kg for 2 weeks): 113.5 ± 7.73 mg/dL | increase in C-peptide level [2, 4]: 65% | reduction in fasting blood/plasma glucose level [2, 4]: 51.39% | reduction in total cholesterol level [2, 4]: 31.19% | reduction in total cholesterol level ([2]; 200 mg/kg for 2 weeks, versus diabetic control, listed as furostanol saponin 3): 31.9% | AG inhibition IC50 [3]: 03.12 ± 0.17 µg/mL | mortality (acute toxicity) (male mature albino mice): no mortality

C[C@H]1O[C@H](O[C@H]2[C@H](O)[C@@H](O)[C@@H](O[C@H]3[C@H](O)[C@@H](O)C(O)O[C@@H]3CO)O[C@@H]2CO)[C@H](O)[C@@H](O)[C@@H]1N[C@H]1C=C(CO)[C@@H](O)[C@H](O)[C@H]1O (stereo partly shown) [Acarbose, acarbose, reference compound]
AG inhibition IC50 [3]: 24.00 ± 2.31 µg/mL

CC(O)C1C(O)CC2C3CC=C4CC(OC5OC(CO)C(O)C(O)C5O)CCC4(C)C3CCC21C [Compound 2, pregn-5-ene-3β,16β,20(R)-triol 3-O-β-D-glucopyranoside]
AR inhibition IC50 [1]: inactive | IC50 [1]: 24.6 µM

CC[C@H](/C=C/C(C)C1CCC2C3CC=C4C[C@@H](O[C@@H]5O[C@H](CO)[C@@H](O)[C@H](O)[C@H]5O)CCC4(C)C3CCC12C)C(C)C (stereo partly drawn) [Compound 1, stigmasterol-3-O-β-D-glucopyranoside]
AR inhibition IC50 [1]: inactive | IC50 [1]: 49.7 µM

Cc1ccc(S(=O)(=O)NC(=O)NN2CC3CCCC3C2)cc1 (stereo not shown) [Gliclazide, reference compound]
Glucose level ([2]; 10 mg/kg (standard drug)): 93.09 ± 5.80^b mg/dL | C-peptide ([2]; 10 mg/kg (standard drug)): 1.78 ± 0.11 ng/mL | Cholesterol level ([2]; 10 mg/kg (standard drug)): 125.3 ± 5.98^b mg/dL | Insulin ([2]; 10 mg/kg (standard drug)): 2.82 ± 0.18^a^,^b μIU/mL | Triglycerides ([2]; 10 mg/kg (standard drug)): 103.7 ± 9.73 mg/dL | reduction in cholesterol level ([2]; 10 mg/kg (standard drug), versus diabetic control): 25.42%
